Measurements taken from article PMC10671360, “In Silico and In Vitro Study towards the Rational Design of 4,4′-Disarylbisthiazoles as a Selective α-Synucleinopathy Biomarker” (International Journal of Molecular Sciences, 2023).

How the values were obtained:
[1] = target: T1, recombinant α-syn fibrils (Homo sapiens, UniProt P37840); assay: Competition binding assay against [^3H]DCVJ, α-syn fibrils; conditions: for Selectivity Aβ/α-syn / Selectivity tau/α-syn: ratio of Ki, [^3H]DCVJ was used
T1 construct: made in house
Description: The incubation of purified recombinant α-synuclein monomer (10 mg/mL) obtained as described by Uzuegbunam was carried out in PBS (pH 7.4) at 37 °C. The solution was left shaking at 900 rpm in an Eppendorf Thermomixer for up to 84 h. Determination of the concentration of the formed fibrils (α-syn) was carried out following the centrifugation of the reaction vial at 12,000× g for 5 min. The pellet obtained was washed thrice with 20 mM of Tris-HCl, pH 7.4. The supernatants from the three centrifugation steps were combined, and the concentration of the monomer in the resulting supernatant was determined in a BCA assay (Thermo Fisher Scientific, Waltham, MA, USA) (with a BSA standard curve). Determination of the concentration of α-syn was carried out by subtracting the amount of α-synuclein monomer in the supernatant from the initial amount used for fibrillation.
(§1) The pellets of the fibrils obtained above (Section 4.2.1) were resuspended in 20 mM of Tris-HCl, pH 7.4 and diluted as needed for the binding assays.
(§2) A fixed concentration of [^3H]DCVJ (10 nM) and α-synuclein aggregates (125 nM), prepared as described above (Section 4.2.3), was used with different final concentrations of the DABTAs from 0.01 to 100 nM (see SI Figure S1). The experiment was carried out in quintuplicate for each concentration. The mixture was incubated for 2 h in a final volume of 200 μL per well after dilution with 20 mM of Tris-HCl, pH 7.4. The incubated mixtures were filtered through a Perkin Elmer GF/B glass filter via a TOMTEC cell harvester and immediately washed thrice with 1 mL of deionized water. The filters containing the bound ligands were dried and afterwards mixed with 3 mL of BetaPlate Scint solution (Perkin Elmer Life Sciences, Waltham, MA, USA) and left there for 2 h before counting in a Wallac 1450 MicroBeta TriLux Liquid Scintillation Counter (PerkinElmer Life Sciences, Waltham, MA, USA). For the determination of the inhibition constants, data were analyzed using GraphPad Prism software (version 7.0) to obtain IC50 values by fitting the data to the equation Y = bottom + (top − bottom)/(1 + 10(x − log IC50)). Ki values were calculated from IC50 values using the equation Ki = IC50/(1 + [radioligand]/Kd). […] Further protocol was carried out as for [^3H]DCVJ (see SI Figure S3).

tau fibrils = tau fibrils (Homo sapiens, UniProt P10636); assay: Competition binding assay against [^3H]PiB, tau fibrils
Description: as §2, with “Recombinant tau monomer (R&D systems, Minneapolis, MN, USA) was dissolved in 20 mM of Tris HCl, pH 8.0, 100 mM of NaCl, 25 μM of low-MW heparin, and 0.5 mM of dithiothreitol to a final concentration of 300 µg/mL. The mixture was incubated with shaking at 900 rpm at 37 °C for 48 h. To separate the non-aggregated monomers from the formed fibrils, the reaction mixture was centrifuged at 12,000× g for 5 min, and the resulting pellet was washed three times with 500 μL of 20 mM Tris-HCl, pH 7.4. The supernatants from the three centrifugation steps were combined, and the concentration of the monomer in the resulting supernatant was determined in a BCA assay(Thermo Fisher Scientific, Waltham, MA, USA) (with a BSA standard curve). Determination of the concentration of fibrils formed was carried out by subtracting the amount of tau peptide monomer in the supernatant from the initial amount used for fibrillation. The pellets of the fibrils obtained above (Section 4.2.1) were resuspended in 20 mM of Tris-HCl, pH 7.4 and diluted as needed for the binding assays. A fixed” for “A fixed”, “Figure S3). […] Further procedures followed the same already described in Section 4.2.3.1 (See SI Figure S4).” for “Figure S3).”

Aβ1−42 fibrils = target: T2, Aβ1−42 fibrils (Homo sapiens, UniProt P05067); assay: Competition binding assay against [^3H]DCVJ, Aβ1−42 fibrils; conditions: [^3H]DCVJ was used (10 nM); Aβ1−42 aggregates 125 nM; read-out: Ki Aβ
T2 construct: 1 mg of β-amyloid1–42 peptide (Abcam, Cambridge, UK); purchased Abcam
Description: After the dissolution of 1 mg of β-amyloid1–42 peptide (Abcam, Cambridge, UK) in 50 μL of DMSO, 925 μL of Milli-Q® water was added to it, and the mixture was stirred. Finally, 25 μL of 1M Tris HCl, pH 7.4 was added to bring the final peptide concentration to 1 mg/mL. The mixture was then left to incubate at 37 °C for 30 h with shaking at 900 rpm. To separate the non-aggregated monomers from the formed fibrils, the reaction mixture was centrifuged at 12,000× g for 5 min, and the resulting pellet was washed three times with 500 μL of 20 mM Tris-HCl, pH 7.4. The supernatants from the three centrifugation steps were combined, and the concentration of the monomer in the resulting supernatant was determined in a BCA assay (Thermo Fisher Scientific, Waltham, MA, USA) (with a BSA standard curve). Determination of the concentration of fibrils formed was carried out by subtracting the amount of β-amyloid1−42 peptide monomer in the supernatant from the initial amount used for fibrillation.
as §1, §2
Fixed concentrations (125 nM) of Aβ1−42, tau aggregates, and [^3H]DCVJ (10 nM and 20 nM for the Aβ1−42 and tau competition experiments respectively) were used with different concentrations of cold versions of the tracers from 1 to 1000 nM (See SI Figure S2). The experiment was performed in quadruplicate for each concentration. […]

[2] = target: T1, recombinant α-syn fibrils; assay: Competition binding assay against [^3H]PiB, α-syn fibrils; conditions: for Selectivity Aβ/α-syn / Selectivity tau/α-syn: ratio of Ki, [^3H]PiB was used
[3] = [^3H]DCVJ was used (10 nM), α-synuclein aggregates 125 nM

Sequence of tau fibrils (P10636 2-758): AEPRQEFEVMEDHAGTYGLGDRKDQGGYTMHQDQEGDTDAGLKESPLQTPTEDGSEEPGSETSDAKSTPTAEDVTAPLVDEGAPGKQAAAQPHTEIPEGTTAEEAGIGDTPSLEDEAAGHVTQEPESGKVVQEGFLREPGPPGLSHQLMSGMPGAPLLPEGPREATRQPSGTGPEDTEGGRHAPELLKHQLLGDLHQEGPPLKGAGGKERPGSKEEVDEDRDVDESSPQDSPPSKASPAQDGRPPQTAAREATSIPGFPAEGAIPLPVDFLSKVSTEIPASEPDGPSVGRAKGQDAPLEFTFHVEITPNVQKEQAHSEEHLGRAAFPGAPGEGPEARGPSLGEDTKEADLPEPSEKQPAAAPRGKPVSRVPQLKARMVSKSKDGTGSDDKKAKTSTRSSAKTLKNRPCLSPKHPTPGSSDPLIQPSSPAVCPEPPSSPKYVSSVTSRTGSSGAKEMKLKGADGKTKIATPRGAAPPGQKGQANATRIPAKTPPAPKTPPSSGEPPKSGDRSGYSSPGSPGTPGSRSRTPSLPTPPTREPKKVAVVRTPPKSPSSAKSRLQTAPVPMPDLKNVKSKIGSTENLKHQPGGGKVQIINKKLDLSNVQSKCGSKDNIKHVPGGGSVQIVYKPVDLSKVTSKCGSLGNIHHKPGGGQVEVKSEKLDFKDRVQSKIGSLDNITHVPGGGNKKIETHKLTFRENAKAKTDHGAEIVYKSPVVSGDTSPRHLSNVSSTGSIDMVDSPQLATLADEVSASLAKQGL
T2 sequence (P05067 672-713): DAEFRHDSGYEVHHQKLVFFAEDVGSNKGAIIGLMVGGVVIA

SMILES	Ki [1, 3]	Selectivity Aβ/α-syn [1]	Selectivity tau/α-syn [1]	Ki (tau fibrils)	Ki (Aβ1−42 fibrils)	Ki [2]	Selectivity Aβ/α-syn [2]	Selectivity tau/α-syn [2]	Ki α-syn [1, 3]
FCCOc1cnc(-c2csc(-c3nc(-c4ccc5c(c4)OCO5)cs3)n2)nc1 [f5, 4-(Benzo[d][1,3]dioxol-5-yl)-4′-(5-(2-fluoroethoxy)pyrimidin-2-yl)-2,2′-bithiazole]	2.27 nM	58.9	227.0	516 nM	134 nM	2.88 nM	53.8	179.2	
FCCOCCOc1cnc(-c2csc(-c3nc(-c4ccc5c(c4)OCO5)cs3)n2)nc1 [f6, 4-(Benzo[d][1,3]dioxol-5-yl)-4′-(5-(2-(2-fluoroethoxy)ethoxy)pyrimidin-2-yl)-2,2′-bithiazole]	0.5 nM	395.6	874.4	362 nM	198 nM	4.89 nM	19.8	74.1	subnanomolar
FCCOc1cnc(-c2csc(-c3nc(-c4cnc5c(c4)OCO5)cs3)n2)nc1 [f4, 6-(4′-(5-(2-Fluoroethoxy)pyrimidin-2-yl)-[2,2′-bithiazol]-4-yl)-[1,3]dioxolo[4,5-b]pyridine]	0.99 nM	253.1	469.6	766 nM	251 nM	1.51 nM	122.6	507.5	
Fc1ncc(-c2csc(-c3nc(-c4cnc5c(c4)OCO5)cs3)n2)cn1 [d10]	1.36 nM	299.1	>735.3	434 nM	407 nM	4.75 nM	45.1	91.5	
